Laboratory results published in patent US12011443B2, “Pharmaceutical composition for preventing or treating nonalcoholic steatohepatitis” (J2H BIOTECH INC., priority 2018, dated 2024).

Tests used:
[1] = system: non-alcoholic steatohepatitis prevention model, MCD feed, mice (C57BL/6); experiment: Non-alcoholic steatohepatitis prevention model (MCD feed with simultaneous administration for 12 weeks); format: in vivo; conditions: 12 weeks with MCD feed, vs vehicle control group (G2)
Description: The efficacy of the test compound for preventing non-alcoholic steatohepatitis was evaluated. Using 7-week-old mice (C57BL/6), the normal group (G1) was supplied with general feed, and the vehicle control group (G2), positive control group (G3), and test groups (G4, G5) were supplied with the MCD feed for 12 weeks. Simultaneously with the MCD diet, test compounds and controls were administered orally once a day. Mice were divided into five groups, and a total of 75 mice, 15 mice per each group, were used for the experiment.
In order to evaluate the prophylactic efficacy, the test compound was administered for 12 weeks at the same time as induction with the MCD diet, and the efficacy of the test compound for the prevention of steatohepatitis was evaluated.
Each appropriate amount of the control compound (Obeticholic acid, 10 mg/kg/day) and the test compound was weighed, and then diluted in 0.5 wt % methyl cellulose aqueous solution to which 1 wt % Tween 80 was added. During oral administration, the weight of the mouse was measured, and the animals were fixed using the cervical skin fixation method, and each test substance was administered using a sonde for oral administration. […]

[2] = single administration and combined administration with metformin; cited from earlier work
[3] = system: non-alcoholic steatohepatitis C57BL/6 mouse model induced by the methionine and choline deficient (MCD) diet; experiment: Non-alcoholic steatohepatitis treatment model (MCD diet), 6 weeks repeated oral administration; format: in vivo, C57BL/6 mice; conditions: for LDL level (blood biochemical test) / oil red O staining area level: p<0.01
Source text: The MCD model, which is an animal model of steatohepatitis, was used. C57BL/6 mice were supplied with a MCD (methionine-choline deficient) diet for 5 days, followed by a normal diet for 2 days. In this way, for 10 weeks, the MCD diet and normal diet were alternately supplied. Animals were identified using tail marks during the acclimatization period (blue), dosing and observation period (red). Individual identification cards, distinguished by color, were attached to the breeding box, and an animal room usage record was attached to the entrance of the breeding room.
During the acclimatization period, blood biochemical tests and body weight measurements were performed. Mice were randomly distributed so that the average of each group was distributed as uniformly as possible according to the ranked ALT and body weight levels. [10 animals in the normal feed group (G1), 40 animals in the MCD diet group (G2-G5)]
The improvement effect that appeared when the test compound was repeatedly administered for 6 weeks to the non-alcoholic steatohepatitis C57BL/6 mouse model induced over 10 weeks with the MCD diet was evaluated. Test compound was administered once a day for 6 weeks. As a positive control, obeticholic acid (hereinafter referred to as OCA), which is currently undergoing a phase 3 clinical trial with non-alcoholic steatohepatitis as an indication, was used.
In the case of a control compound (obeticholic acid, 10 mg/kg/day), an appropriate amount was weighed and then diluted in sterile distilled water and administered. In the case of the test compound, after weighing the appropriate amount, it was diluted with 0.5 wt % methyl cellulose aqueous solution to which 1 wt % Tween 80 was added. During oral administration, the weight of the mouse was measured, and the animals were fixed using the cervical skin fixation method, and each test compound was administered using a sonde for oral administration.
It was measured at the start of administration, and once a week and on the day of autopsy after the start of administration.
It was measured right before the start of administration, and once a week after the start of administration of the test compound. As for the measurement method, the remaining amount of feed was measured per unit of breeding box next day after quantitative feeding, the difference was calculated, and the average intake per mouse was calculated.
The following items were tested using a blood biochemical analyzer (7180 Hitachi, Japan) with blood collected and separated at right before and the 6th week (the day of autopsy) after administration of the test compound.
Six weeks after administration of the test compound: ALT (alanine transaminase), AST (aspartate transaminase), TG (triglyceride), TCHO (total cholesterol), HDL (high-density lipoprotein), LDL (low-density lipoprotein), GGT (Gamma-glutamyltransferase), LDH (Lactate dehydrogenase)
On the day of autopsy, pimonidazole was diluted in saline at a concentration of 30 mg/ml, and then administered intravenously at a dose of 60 mg/kg. Animals were euthanized 90 minutes after administration. At each autopsy, the animals were inhaled with ether, and when anesthesia was confirmed, blood was collected from the posterior vena cava using a syringe. Thereafter, the abdominal aorta and posterior vena cava were cut, bleeding, and killed. Blood was injected into a vacutainer tube containing a clot activator, allowed to stand at room temperature for about 15 minutes to coagulate, and then centrifuged at 3,000 rpm for 10 minutes to separate the serum. Serum was stored in a deep freezer set at −70° C. or lower before analysis, and was used for blood biochemical tests.
At autopsy, the liver was excised and weighed, the right lobe of the liver was fixed in 10% neutral buffered formalin solution, and the left lobe was divided into half and rapidly frozen using liquid nitrogen. The quick-frozen specimens were stored in a cryogenic freezer set at −70° C. or lower until ELISA analysis. […]

[4] = Tissue concentration after oral administration to the mouse; format: in vivo; conditions: 2 hours after oral administration
[5] = clinical trials; cited from earlier work
[6] = 10 mg/kg/day (G4), vs vehicle control group (G2)
[7] = 30 mg/kg/day (G5), vs vehicle control group (G2)

Q: For C[C@@H]1CN(c2ccc(S(C)(=O)=O)cc2F)CCN1c1nccc(C(=O)N[C@H]2C3CC4CC2C[C@](O)(C4)C3)n1 [Chemical Formula 1, 2-((R)-4-(2-fluoro-4-(methylsulfonyl)phenyl)-2-methylpiperazin-1-yl)-N-((1R,2s,3S,5S,7S)-5-hydroxyadamantan-2-yl)pyrimidine-4-carboxamide], which “triglycerides in liver tissue” value ([1]; 10 mg/kg/day (G3, G4) oral once a day) is on record?
A: statistically significant decrease

Q: What about the “triglycerides in liver tissue” value ([1]; 30 mg/kg/day (G5) oral once a day) of the same molecule?
A: statistically significant decrease

Q: What about the “efficacy as therapeutic agent for type 2 diabetes” value [2] of the same molecule?
A: did not show sufficient efficacy

Q: What about the “ALT level (blood biochemical test)” value ([3]; 10 mg/kg/day (G3, G4) oral once a day, vs vehicle control group (G2), p<0.05) of the same molecule?
A: significantly lower

Q: And the “Hydroxyproline expression area level” value ([3]; 10 mg/kg/day (G3, G4), vs normal control group (G1), p<0.001 or p<0.05)?
A: significantly higher

Q: And the “Hydroxyproline expression area level” value ([3]; 10 mg/kg/day (G3, G4), vs vehicle control group (G2), p<0.001 or p<0.01)?
A: significantly lower

Q: And the “TCHO level in liver tissue (ELISA)” value [3, 6]?
A: significantly lower

Q: And the “TG level in liver tissue (ELISA)” value [3, 6]?
A: significantly lower

Q: And the “LDL level (blood biochemical test)” value ([3]; 10 mg/kg/day (G4), vs vehicle control group (G2) and positive control group (G3))?
A: significantly lower

Q: And the “oil red O staining area level” value ([3]; 10 mg/kg/day (G4), vs vehicle control group)?
A: significantly lower

Q: What about the “ALT level (blood biochemical test)” value ([3]; 30 mg/kg/day (G5) oral once a day, vs vehicle control group (G2), p<0.001 or p<0.05) of the same molecule?
A: significantly lower

Q: What about the “TCHO level in liver tissue (ELISA)” value [3, 7] of the same molecule?
A: significantly lower

Q: What about the “TG level in liver tissue (ELISA)” value [3, 7] of the same molecule?
A: significantly lower

Q: And the “LDL level (blood biochemical test)” value ([3]; 30 mg/kg/day (G5), vs vehicle control group (G2) and positive control group (G3))?
A: significantly lower

Q: And the “relative liver weight level” value ([3]; 30 mg/kg/day (G5), vs vehicle control group (G2) and positive control group (G3), p<0.01 or p<0.05)?
A: significantly lower

Q: What about the “Hydroxyproline expression area level” value ([3]; 30 mg/kg/day (G5), vs vehicle control group (G2), p<0.001 or p<0.01) of the same molecule?
A: significantly lower

Q: What about the “AST level (blood biochemical test)” value ([3]; 30 mg/kg/day (G5), vs vehicle control group (G2), p<0.001 or p<0.05) of the same molecule?
A: significantly lower

Q: What about the “liver weight level (absolute)” value ([3]; 30 mg/kg/day (G5), vs vehicle control group (G2), p<0.05) of the same molecule?
A: significantly lower

Q: What about the “oil red O staining area level” value ([3]; 30 mg/kg/day (G5), vs vehicle control group) of the same molecule?
A: significantly lower

Q: What about the “microvesicular steatosis level (histopathology)” value ([3]; 30 mg/kg/day (G5), vs vehicle control group, p<0.05) of the same molecule?
A: significantly lower

Q: And the “effect of alleviating non-alcoholic steatohepatitis” value ([3]; 30 mg/kg/day, compared to positive control compound)?
A: superior

Q: And the “blood biochemistry, liver relative weight, TG and TCHO content in liver tissue, and microvesicular steatosis level” value ([3]; high dose administration group, vs positive control group)?
A: lower than those of the positive control group

Q: And the “LDH (FIG. 2)” value ([3]; high-dose administration group, compared to normal group)?
A: concentration similar to that of the normal group

Q: And the “levels of inflammation (histopathology)” value ([3]; test compound administration group, vs vehicle control group)?
A: lower levels of inflammation

Q: What about the “LDH (FIG. 2)” value ([3]; test compound groups, compared to the positive control group) of the same molecule?
A: tends to decrease LDH

Q: What about the “concentration of the liver tissue compared with plasma concentration” value [4] of the same molecule?
A: higher than the plasma concentration

Q: Which results are given for CC[C@H]1[C@@H](O)[C@@H]2[C@H](CC[C@]3(C)[C@@H]([C@H](C)CCC(=O)O)CC[C@@H]23)[C@@]2(C)CC[C@@H](O)C[C@@H]12 [OCA, obeticholic acid]?
A: subjects showing stomach pain and fatigue [5]: more than 10%; subjects with side effects like irregular heartbeat, dry skin, constipation, joint pain, peripheral edema, sore throat, thyroid hormone irregularity, rash [5]: about 10%
